The source made the active and inactive calls. No cut-off for these calls is given here.

Assay [1] has as its system HCT-116. Briefly: Cytotoxicity against human HCT116 cells assessed as growth inhibition at 50 uM after 48 hrs by MTT assay. The assay is classed as functional, cell-based.
In assay [2] the test system is HepG2. Briefly: Cytotoxicity against human HepG2 cells assessed as growth inhibition after 48 hrs by MTT assay. The assay is classed as functional, cell-based. The settings on record: HepG2, 48 h. Background: Formazan colour is commonly taken as a measure of viable cells.
Assay [3] relates to NCI-H460. Briefly: Cytotoxicity against human NCI-H460 cells assessed as growth inhibition at 50 uM after 48 hrs by MTT assay. It is filed as functional, cell-based.
Assay [4] concerns MCF-10A. Briefly: Cytotoxicity against human MCF10A cells assessed as growth inhibition after 48 hrs by MTT assay. The assay is classed as cell-based.
Assay [5] relates to NCI-H460. The assay is described as follows: Cytotoxicity against human NCI-H460 cells assessed as growth inhibition after 48 hrs by MTT assay. It is filed as functional, cell-based. The settings on record: NCI-H460, 48 h.
For assay [6], the system named is HCT-116. Briefly: Cytotoxicity against human HCT116 cells assessed as growth inhibition after 48 hrs by MTT assay. It is filed as functional, cell-based. The settings on record: HCT-116, 48 h.
Assay [7] has as its system MDA-MB-435. The assay is described as follows: Cytotoxicity against human MDA-MB-435 cells assessed as growth inhibition after 48 hrs by MTT assay. The settings on record: MDA-MB-435, 48 h. It is filed as functional, cell-based.
The subject of assay [8] is MDA-MB-435. Briefly: Cytotoxicity against human MDA-MB-435 cells assessed as growth inhibition at 50 uM after 48 hrs by MTT assay. It is filed as functional, cell-based.
The subject of assay [9] is HepG2. Briefly: Cytotoxicity against human HepG2 cells assessed as growth inhibition at 50 uM after 48 hrs by MTT assay. The assay is classed as functional, cell-based.

`O=C(O)CCCCN1Cc2c(O)cc(O)cc2C1=O`: the “growth inhibition (GI)” value in assay [1], in [3], in assay [8] and in [9] was “inactive” in each case. Also, the 50% inhibitory concentration (IC50) in [2], in assay [4], in assay [5], in [6] and in assay [7] was greater than 50 µM throughout.
Regarding `COC(=O)c1cc(O)cc2oc3cc(CO)ncc3c(=O)c12`, the “growth inhibition (GI)” value in [1], in assay [3], in [8] and in assay [9] was “inactive” throughout. In addition, the half-inhibitory concentration (IC50) in [2], in assay [4], in assay [5], in assay [6] and in [7] was greater than 50 µM each time.
Regarding `COC(=O)c1cc(OC)c(OC)c2oc3cc(C)ncc3c(=O)c12`, the “growth inhibition (GI)” value in assay [1], in assay [3], in assay [8] and in assay [9] was “inactive” in each case. Besides, the IC50 in assay [2], in assay [4], in assay [5], in [6] and in assay [7] was greater than 50 µM each time.
In the case of `O=C1c2cc(O)cc(O)c2CN1CCO`, the “growth inhibition (GI)” value in assay [1], in assay [3], in assay [8] and in [9] was “inactive” throughout. Further, the 50% inhibitory concentration (IC50) in assay [2], in [4], in [5], in [6] and in assay [7] was greater than 50 µM throughout.
With `COc1cccc2c1C(=O)c1c(O)c3c(c(O)c1C2=O)C[C@@](O)(C(=O)CO)C[C@@H]3O[C@H]1C[C@H](N)[C@@H](O)[C@H](C)O1` [EPIRUBICIN], the IC50 in assay [2] was 0.32 µM; in [4], 0.13 µM; in assay [5], 0.12 µM; in assay [6], 0.37 µM; in [7], 0.26 µM.
On to `COC(=O)CCCCN1Cc2c(O)cc(O)cc2C1=O`, for which the “growth inhibition (GI)” value in [1], in assay [3], in assay [8] and in [9] was “inactive” in each case. For the same compound, the concentration for half-maximal inhibition (IC50) in assay [2], in assay [4], in assay [5], in [6] and in assay [7] was greater than 50 µM in each case.
In the case of `COC(=O)c1cc(OC)cc2oc3cc(C)ncc3c(=O)c12`, the “growth inhibition (GI)” value in assay [1], in [3], in [8] and in assay [9] was “inactive” throughout. Besides, the IC50 in assay [2], in assay [4], in assay [5], in [6] and in assay [7] was greater than 50 µM throughout.
Take `COC(=O)c1cc(OC)c(OC(C)=O)c2oc3cc(C)ncc3c(=O)c12`: the “growth inhibition (GI)” value in assay [1], in assay [3], in [8] and in assay [9] was “inactive” in each case. Further, the IC50 in assay [2], in assay [4], in assay [5], in [6] and in [7] was greater than 50 µM each time.
Consider `COc1cc(O)c2c(c1)C(=O)c1cc(C)ncc1C2=O`, for which the IC50 in [2] was greater than 50 µM; in assay [4], 9.31 µM; in assay [5] it was 6.57 µM; in assay [6] it was 34.8 µM; in assay [7], 5.32 µM.

The term IC50 denotes the point on the concentration scale where inhibition reaches its midpoint.

The values are drawn from ChEMBL document CHEMBL4002636, “Alkaloids from the mangrove endophytic fungus Diaporthe phaseolorum SKS019” (Bioorg Med Chem Lett, 2017).
